Source: patent US12268702B2, “Antitumor pharmaceutical composition comprising azvudine and chemotherapeutic agent” (HENAN GENUINE BIOTECH CO., LTD., priority 2023, dated 2025)
Several values for one entry are separate records, joined by “and”; a condition that tells them apart may be missing. Equal values may be shown once.

Tests used:
Format in all cases: in vivo
[1] = system: Colo 205 human colon cancer model; test: Colo 205 human colon cancer subcutaneous xenograft tumor model
Procedure: Experimental animals were 68 (48 plus 20 spare mice) BALB/c female nude mice, 7-8 weeks old (the age of mice at the time of tumor cell inoculation) and weighing 15.7-20.7 g, which were purchased from Beijing VitalRiver Experimental Animal Technology Co., Ltd. Breeding environment was SPF grade. The experimental animals were all kept in an independent ventilated box with constant temperature and humidity. The temperature of the breeding room was 20-26° C., the humidity was 40-70%. The breeding room was ventilated 10-20 times per hour. The alternating time of day and night was 12 h/12 h. The mice were continuously supplied with cobalt 60 radiation sterilized mouse complete pellet feed, and had free access to the feed. The mice drank tap water (available after sterilization with high-pressure steam), which was continuously supplied using a water-drinking bottle, and had free access to water. The mouse box was a polysulfone mouse box, which was used after sterilization under high pressure, with a size of 325 mm×210 mm×180 mm.
Colo 205 cells were cultured in RPMI1640 medium containing 10% fetal bovine serum. Colo 205 cells in the exponential growth phase were collected, resuspended in PBS to an appropriate concentration and mixed with Matrigel at a ratio of 1:1. The resulting mixture was used for subcutaneous inoculation of tumor in mice. 5×10^6 Colo 205 cells were subcutaneously inoculated on the right side of female mice. The day of inoculation was defined as Day 0. When the average tumor volume reached 110.26 mm^3, the mice were randomly divided into groups according to tumor size.
Relative tumor proliferation rate, T/C %, refers to the percentage value of the relative tumor volume or tumor weight of the treatment group and the control group at a certain time point, which was calculated as follows:
T/C %=TRTV/CRTV×100% (TRTV: the average RTV of the treatment group; CRTV: the average RTV of the vehicle control group; RTV=Vt/V0, where V0 is the tumor volume of the animal when grouped, and Vt is the tumor volume of the animal after treatment); • or T/C %=TTW/CTW×100% (TTW: the average tumor weight of the treatment group at the end of the experiment; CTW: the average tumor weight of the vehicle control group at the end of the experiment). • Relative tumor inhibition rate, TGI (%), was calculated according to the formula as follows: TGI %=(1−T/C)×100%. (T and C are the relative tumor volumes (RTV) or tumor weights (TW) of the treatment group and the control group at a specific time point).

[2] = system: LoVo xenograft tumor model; test: LoVo human colon cancer subcutaneous xenograft tumor model; details: 21st day of administration, azvudine 1 mpk, capecitabine 400 mpk, combination 1 + 400 mpk; for Tumor volume (mm^3): BALB/c nude mice, p.o. QD x 3 weeks
Procedure: Human colon cancer cells LoVo (Cat. No.: ECACC-87060101) were cultured in vitro as a monolayer in F12K medium containing 10% fetal bovine serum, 100 U/mL penicillin and 100 μg/mL streptomycin, in a 37° C. and 5% CO2 incubator. The cells were routinely digested with trypsin-EDTA and passaged twice a week. When the cell saturation reached 80%-90% and the cell number achieved the requirement, the cells were collected, counted and inoculated.
0.1 mL)(10×10^6) of LoVo cells were subcutaneously inoculated on the right back of each mouse. The grouping administration was started when the average tumor volume reached about 147 mm^3.
The tumor volume changes and the tumor weight changes in each group (on the 21st day of administration) after administration of test drugs for treating BALB/c nude mice with Lovo cell subcutaneous xenograft tumor are shown in Table 5 and Table 6 respectively.

[3] = system: Daudi xenograft tumor model; test: Human Burkitt's lymphoma cell Daudi subcutaneous xenograft tumor model; details: combination 1 + 50 mg/kg; for Tumor volume (mm^3) on the 27th day: CB 17 SCID mice, QD x 4 weeks, azvudine 1 mg/kg p.o., cyclophosphamide 50 mg/kg i.p.
Procedure: (§1) Human Burkitt's lymphoma cells Daudi (Cat. No.: DSMZ-ACC129) were in vitro suspended and cultured in RPMI 1640 medium containing 10% fetal bovine serum, 2 mM glutamine, 100 U/mL penicillin and 100 μg/mL streptomycin, in a 37° C. and 5% CO2 incubator. When the cell saturation achieved 80%-90% and the cell number reached the requirement, the cells were collected, counted and inoculated.
0.2 mL (10×10^6) of Daudi cells (added with Matrigel at a volume ratio of 1:1) were subcutaneously inoculated on the right back of each mouse. The grouping administration was started when the average tumor volume reached about 100 mm^3.
The changes of tumor volume and tumor weight in each group after administration of test drugs for treating CB 17 SCID mice with Daudi cell subcutaneous xenograft tumor are shown in Table 8 and Table 9 respectively.

[4] = system: MOLT4 xenograft tumor model; test: Human acute lymphoblastic leukemia MOLT4 cell subcutaneous xenograft tumor model; details: combination 1 + 50 mg/kg; for Tumor volume (mm^3) on the 28th day: SCID Beige mice, QD x 4 weeks, azvudine 2 mg/kg in Table 10, cyclophosphamide 50 mg/kg i.p.
Procedure: as §1, with “acute lymphoblastic leukemia” for “Burkitt's lymphoma”, “MOLT4” for “Daudi”, “ECACC-85011413)” for “DSMZ-ACC129)”, “serum,” for “serum, 2 mM glutamine,”
0.2 mL (10×10^6) of MOLT4 cells (added with Matrigel at a volume ratio of 1:1) were subcutaneously inoculated on the right back of each mouse. The grouping administration was started when the average tumor volume reached about 148 mm^3.
The changes of tumor volume and tumor weight in each group after administration of test drugs for treating SCID Beige mice with MOLT4 cell subcutaneous xenograft tumor are shown in Table 10 and Table 11.

[5] = system: OVCAR-8 human ovarian cancer model; test: OVCAR-8 human ovarian cancer subcutaneous xenograft tumor model; details: azvudine 1 mg/kg, paclitaxel 15 mg/kg, avastin 10 mg/kg, combinations 1 + 15 and 1 + 10 mg/kg; for T/C (%) / TGI (%) / Tumor volume (x ± S): 34th day after grouping; for average tumor volume: 34th day of administration
Procedure: OVCAR-8 cells were cultured in RPMI1640 medium containing 10% fetal bovine serum. OVCAR-8 cells in the exponential growth phase were collected, resuspended in PBS to an appropriate concentration and mixed with Matrigel at a ratio of 1:1. The resulting mixture was used for subcutaneous inoculation of tumor in mice.
1×10^7 OVCAR-8 cells were inoculated subcutaneously on the right side of female mice. When the average tumor volume achieved 174.25 mm^3, the mice were randomly divided into groups according to tumor size.
The experimental protocols for animal experiments in this experiment were reviewed and approved by the CrownBio IACUC committee. During the experiment, the animal experiments were performed in accordance with the requirements of AAALAC. After tumor inoculation was completed, the impact of tumor growth and treatment on normal behavior of animals was routinely monitored, specifically the activity of experimental animals, food intake and water intake, body weight gain or loss (body weight was measured twice a week), eye, hair and other abnormalities. The clinical symptoms observed during the experiment were recorded in the original data. The tumor volume was calculated according to the following formula: tumor volume (mm^3)=½×(a×b^2) (where a represents long diameter and b represents short diameter).
Relative tumor proliferation rate, T/C %, refers to the percentage value of the relative tumor volume or tumor weight of the treatment group and the control group at a certain time point, which was calculated as follows: • T/C %=TRTV/CRTV×100% (TRTV: the average RTV of the treatment group; CRTV: the average RTV of the vehicle control group; RTV=Vt/V0, where V0 is the tumor volume of the animal when grouped, and Vt is the tumor volume of the animal after treatment); • or T/C %=TTW/CTW×100% (TTW: the average tumor weight of the treatment group at the end of the experiment; CTW: the average tumor weight of the vehicle control group at the end of the experiment).
Relative tumor inhibition rate, TGI (%), was calculated according to the formula as follows: TGI %=(1−T/C)×100%. (T and C are the relative tumor volumes (RTV) or tumor weights (TW) of the treatment group and the control group at a specific time point).
To compare tumor volumes of different treatment groups on a given day, first the assumption of homogeneity of variance among all groups was tested using the Bartlett test. When the p-value of Bartlett's test was not less than 0.05, whether all group means were equal was tested using one-way ANOVA. If the p-value of the one-way ANOVA was less than 0.05, pairwise comparisons among all groups were conducted using Tukey's HSD test, or pairwise comparisons between each treatment group and control group were conducted using Dunnett's t-test. When the p-value of Bartlett's test was less than 0.05, whether the medians of all groups were equal was tested using Kruskal Wallis test. If the p-value of the Kruskal Wallis test was less than 0.05, pairwise comparisons among all groups or between each treatment group and control group were conducted using Conover test, and the corresponding p-value correction was performed according to the number of groups in the multiple test.

[6] = based on tumor volume, 25th day after inoculation, p.o. QD x 3 weeks, azvudine 1 mpk, capecitabine 400 mpk, combination 1 + 400 mpk
[7] = based on tumor weight, azvudine 1 mpk, capecitabine 400 mpk, combination 1 + 400 mpk
[8] = based on tumor volume, 27th day, azvudine 1 mg/kg, cyclophosphamide 50 mg/kg
[9] = based on tumor volume, 28th day, azvudine 2 mg/kg in Table 10, cyclophosphamide 50 mg/kg

## CCCCCOC(=O)Nc1nc(=O)n([C@@H]2O[C@H](C)[C@@H](O)[C@H]2O)cc1F [Capecitabine, capecitabine]
[1]; 25th day after inoculation (20th day after grouping), BALB/c nude mice, p.o. QD x 3 weeks, azvudine 1 mpk, capecitabine 400 mpk, combination 1 + 400 mpk
  Tumor volume: 264.96 ± 38.65(6)
[1]; 25th day after tumor inoculation (20th day after grouping), azvudine 1 mg/kg, capecitabine 400 mg/kg, combination 1 + 400 mg/kg
  average tumor volume: 264.96 mm^3
[1]; [6]
  T/C (%): 18.07%
  TGI (%): 81.93%
[1]; [7]
  T/C (%): 85.92%
  TGI: 14.08
[1]; end of experiment, p.o. QD x 3 weeks, azvudine 1 mpk, capecitabine 400 mpk, combination 1 + 400 mpk
  Tumor weight (mg): 193.35 ± 28.54(6) mg
[2]
  Tumor volume (mm^3): 919 ± 190 mm^3
  Tumor weight: 0.893 ± 0.173 g
[2]; listed as capecitabine
  Tumor volume (mm^3): 919 mm^3
[2]; based on tumor volume
  T/C (%): 60.94%
  TGI (%): 42.11%
[2]; based on tumor volume, listed as capecitabine
  TGI (%): 42.11% and 42.1%
[2]; based on tumor weight
  T/C (%): 63.27%

## O=P1(N(CCCl)CCCl)NCCCO1 (centres unmarked) [Cyclophosphamide, cyclophosphamide]
[3]; 27th day of administration
  Tumor volume (mm^3) on the 27th day: 263 ± 54 mm^3
[3]; 27th day of administration, listed as cyclophosphamide
  Tumor volume (mm^3) on the 27th day: 263 mm^3
[3]; 27th day of administration, azvudine 1 mg/kg, cyclophosphamide 50 mg/kg
  Tumor weight (g) (On the 27th day): 0.343 ± 0.066 g
[3]; [8]
  T/C (%): 8.83%
  TGI (%): 94.17%
[3]; based on tumor weight, 27th day, azvudine 1 mg/kg, cyclophosphamide 50 mg/kg
  T/Cweight (%): 11.49%
[4]; 28th day of administration
  Tumor volume (mm^3) on the 28th day: 716 ± 76 mm^3
[4]; 28th day of administration, listed as cyclophosphamide CTX
  Tumor volume (mm^3) on the 28th day: 716 mm^3
[4]; 28th day of administration, azvudine 1 mg/kg, cyclophosphamide 50 mg/kg
  Tumor weight (g) (On the 28th day): 0.822 ± 0.065 g
[4]; [9]
  T/C (%): 24.53%
  TGI (%): 79.34%
[4]; based on tumor weight, 28th day, azvudine 1 mg/kg, cyclophosphamide 50 mg/kg
  T/Cweight (%): 27.65%

## CC(=O)O[C@H]1C(=O)[C@@]2(C)[C@H]([C@H](OC(=O)c3ccccc3)[C@]3(O)C[C@H](OC(=O)[C@H](O)[C@@H](NC(=O)c4ccccc4)c4ccccc4)C(C)=C1C3(C)C)[C@]1(OC(C)=O)CO[C@@H]1C[C@@H]2O [Paclitaxel, paclitaxel]
[5]
  T/C (%): 73.51%
  TGI (%): 26.49%
  Tumor volume (x ± S): 403.40 ± 69.43(6)
  average tumor volume: 403.40 mm^3
[5]; listed as paclitaxel
  TGI (%): 26.49% and 26.5%

## Avastin: positive drug avastin
[5]
  T/C (%): 82.30%
  TGI (%): 17.70%
  Tumor volume (x ± S): 456.04 ± 110.65(6)
  average tumor volume: 456.04 mm^3
